Experiments:
useful plants = assay: phytotoxic action on useful plants (general statements); format: in vivo, useful gramineae; settings: in words
From the text: (§1) It is understood that all the data given herein shall have no limiting character on the object of this invention.

infesting gramineae = assay: herbicidal action on infesting plants (general statements); format: in vivo; settings: in words
From the text: as §1

avena sativa (oats) [1] = assay: activity on agrarian species, soil treatment one day after sowing; format: in vivo, Avena sativa L.
setaria glauca L. = assay: herbicidal activity, soil treatment one day after sowing; format: in vivo
[2] = test system: echinocloa crus-galli R.S.; assay: as above; format: in vivo
[3] = test system: phaseolus vulgaris (bean); assay: activity on agrarian species, soil treatment one day after sowing; format: in vivo, Phaseolus vulgaris L.
Outline: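 Activity on bean was rated from 0 (no difference from control) to 4 (germination prevented or plants fully contained at emergence), with both classes noted for intermediate effects. Soil treatment one day after sowing, at rates of 1, 3, 6, 8, 10, 12 and 14 kg/ha.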

zea mais L. (corn) = assay: as above; format: in vivo
Outline: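 Crop injury rated 0–4 relative to control, from no difference up to complete germination failure or arrest of emerging plants; in-between responses get both values. Product spread on soil at 1–14 kg/ha (1, 3, 6, 8, 10, 12, 14) one day post-sowing.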

Echinocloa crus-galli = assay: Example 1 pot test, submerged rice-field earth, granular composition; format: in vivo; settings: 3 kg/ha of active principle
Experimental: (§2) A series of pots were prepared filled with rice-field earth. Into these were then sown Echinocloa crus-galli and rice. The earth was then submerged by 10 cm of water and immediately thereafter were uniformly spread on the submerged soil granular compositions, some of them containing 2% of PA 234 and 98% of phosphorite, some others 5% of PA 234 and 95% of bentonite, in doses graduated from 0 - 8 kg of active principle per hectar. The test pots were kept in a conditioned environment at controlled temperature and photo-period.

rice = assay: as above; format: in vivo; settings: maximum dose; doses 0 - 8 kg/ha
Experimental: as §2

solanum Lycopersicum L. = assay: activity on agrarian species, soil treatment one day after sowing; format: in vivo
From the text: (§3) The infesting species and the agrarian species have been indicated in Table 1 by letters, as follows:
M = solanum Lycopersicum L.
(§4) Method of evaluation of the results (of tests):
(§5) 0 = no activity and no difference with respect to the control;
(§6) 1 slight differences with respect to the control;
(§7) 3 = considerable activity with damages that definitely impair the further development of most of the small plants; an activity degree already useful for practical purposes;
(§8) 4 = maximum of activity with lack of germination or total containment of the small plants in the emerging stage.
In the case of an intermediate activity between two classes of the scale, both values are recorded with the one which corresponds to the preeminent activity preceding. […]

artemisia vulgaris L. = assay: herbicidal activity, soil treatment one day after sowing; format: in vivo
[4] = test system: triticum vulgare L. (wheat); assay: activity on agrarian species, soil treatment one day after sowing; format: in vivo
From the text: as §3
N = triticum vulgare L. (wheat)
as §4, §5, §6, §7, §8
(§9) In the case of an intermediate activity between two classes of the scale, both values are recorded with the one which corresponds to the preeminent activity preceding.
(§10) TABLE 2 reports the activity data of other compounds that fall within the class which is the object of this invention.
(§11) TABLE 3 reports data on the herbicidal activity against infesting herbs, while TABLE 4 reports data concerning the activity on useful species of agricultural cultivations. These tables employ the criterion explained previously. The product was spread on the soil one day after sowing, in quantities of 1, 3, 6, 8, 10, 12 and 14 kg/ha.

avena sativa (oats) [5] = assay: as above; format: in vivo, Avena sativa L.; remark: listed apart in the source
[6] = test system: amaranthus retroflexus L.; assay: herbicidal activity, soil treatment one day after sowing; format: in vivo
oryza sativa L. (rice) = assay: activity on agrarian species, soil treatment one day after sowing; format: in vivo
Outline: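 Activity scored 0 (no difference from control) to 4 (no germination or total containment of emerging plants), intermediates given both classes. Product spread on soil one day after sowing rice, at rates of 1, 3, 6, 8, 10, 12 and 14 kg/ha.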

[7] = test system: beta vulgaris L. (sugar-beet); assay: as above; format: in vivo
From the text: as §3
H = beta vulgaris L. (sugar-beet)
as §4, §5, §6, §7, §8, §9, §10, §11

chenopodium album L. = assay: herbicidal activity, soil treatment one day after sowing; format: in vivo
pisum sativum L. (pea) = assay: activity on agrarian species, soil treatment one day after sowing; format: in vivo
vicia sativa L. = assay: herbicidal activity, soil treatment one day after sowing; format: in vivo
Outline: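 Pre-emergence soil treatment one day after sowing; activity scored visually on a […] scale against untreated control, from slight difference (1) to no germination or total containment at emergence (4); intermediate activity recorded as both classes, preeminent value first.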

SMILES: CCCN(CCC)C(=O)c1cc(Cl)cc(Cl)c1 [3,5-dichloro-N,N-di-n.propyl-benzamide]
- phytotoxic action on useful plants (useful plants): phytotoxic action of considerable intensity
- herbicidal action (infesting gramineae): very active

SMILES: CCC(C)N(C(=O)c1cc(Cl)cc(Cl)c1)C(C)CC (stereo not shown) [PA234, 3,5-dichloro-N,N-di-sec.butyl-benzamide]
- activity on G, 0-4 scale (avena sativa (oats) [1]; 6 kg/ha): 0
- activity on E, 0-4 scale (setaria glauca L.; 0-5 kg/ha (so in the source)): 3-2
- activity on E, 0-4 scale (setaria glauca L.; 0.5 kg/ha): 3-2
- activity on E, 0-4 scale (setaria glauca L.; 1 kg/ha): 3-4
- activity on E, 0-4 scale (setaria glauca L.; 2 kg/ha): 4
- activity on E, 0-4 scale (setaria glauca L.; 4 kg/ha): 4
- activity on E, 0-4 scale (setaria glauca L.; 6 kg/ha): 4
- activity on D, 0-4 scale ([2]; 0-5 kg/ha (so in the source)): 2-1
- activity on D, 0-4 scale ([2]; 0.5 kg/ha): 2-1
- activity on D, 0-4 scale ([2]; 1 kg/ha): 2-3
- activity on D, 0-4 scale ([2]; 2 kg/ha): 4
- activity on D, 0-4 scale ([2]; 4 kg/ha): 4
- activity on D, 0-4 scale ([2]; 6 kg/ha): 4
- activity on I, 0-4 scale ([3]; 2 kg/ha): 0
- activity on I, 0-4 scale ([3]; 4 kg/ha): 0
- activity on I, 0-4 scale ([3]; 6 kg/ha): 0
- activity on O, 0-4 scale (zea mais L. (corn); 2 kg/ha): 0
- activity on O, 0-4 scale (zea mais L. (corn); 4 kg/ha): 0
- activity on O, 0-4 scale (zea mais L. (corn); 6 kg/ha): 0
- growth of Echinocloa crus-galli (Echinocloa crus-galli): totally inhibited
- damage to rice (rice): remained undamaged
- activity on M, 0-4 scale (solanum Lycopersicum L.; 2 kg/ha): 1
- activity on M, 0-4 scale (solanum Lycopersicum L.; 4 kg/ha): 1
- activity on M, 0-4 scale (solanum Lycopersicum L.; 6 kg/ha): 1
- activity on B, 0-4 scale (artemisia vulgaris L.; 2 kg/ha): 0-1
- activity on B, 0-4 scale (artemisia vulgaris L.; 4 kg/ha): 1
- activity on B, 0-4 scale (artemisia vulgaris L.; 6 kg/ha): 1-2
- activity on N, 0-4 scale ([4]; 2 kg/ha): 0
- activity on N, 0-4 scale ([4]; 4 kg/ha): 0
- activity on N, 0-4 scale ([4]; 6 kg/ha): 0
- activity on G, 0-4 scale (avena sativa (oats) [5]; 2 kg/ha): 0
- activity on G, 0-4 scale (avena sativa (oats) [5]; 4 kg/ha): 0
- activity on A, 0-4 scale ([6]; 2 kg/ha): 1-2
- activity on A, 0-4 scale ([6]; 4 kg/ha): 2
- activity on A, 0-4 scale ([6]; 6 kg/ha): 2-3
- activity on P, 0-4 scale (oryza sativa L. (rice); 6 kg/ha): 0
- activity on H, 0-4 scale ([7]; 2 kg/ha): 0
- activity on H, 0-4 scale ([7]; 4 kg/ha): 1
- activity on H, 0-4 scale ([7]; 6 kg/ha): 1
- activity on C, 0-4 scale (chenopodium album L.; 2 kg/ha): 1
- activity on C, 0-4 scale (chenopodium album L.; 4 kg/ha): 2-1
- activity on C, 0-4 scale (chenopodium album L.; 6 kg/ha): 2
- activity on L, 0-4 scale (pisum sativum L. (pea); 2 kg/ha): 0
- activity on L, 0-4 scale (pisum sativum L. (pea); 4 kg/ha): 0
- activity on L, 0-4 scale (pisum sativum L. (pea); 6 kg/ha): 0
- activity on F, 0-4 scale (vicia sativa L.; 2 kg/ha): 0
- activity on F, 0-4 scale (vicia sativa L.; 4 kg/ha): 0
- activity on F, 0-4 scale (vicia sativa L.; 6 kg/ha): 0

SMILES: CCN(CC)C(=O)c1cc(Cl)cc(Cl)c1 [PA291, 3,5-dichloro-N,N-diethyl-benzamide, reference compound]
- activity on E, 0-4 scale (setaria glauca L.; 2 kg/ha): 2-3
- activity on E, 0-4 scale (setaria glauca L.; 4 kg/ha): 3
- activity on E, 0-4 scale (setaria glauca L.; 6 kg/ha): 4
- activity on D, 0-4 scale ([2]; 2 kg/ha): 1-2
- activity on D, 0-4 scale ([2]; 4 kg/ha): 2-3
- activity on D, 0-4 scale ([2]; 6 kg/ha): 4
- activity on O, 0-4 scale (zea mais L. (corn); in vivo): 4
- activity on B, 0-4 scale (artemisia vulgaris L.; 2 kg/ha): 3
- activity on B, 0-4 scale (artemisia vulgaris L.; 4 kg/ha): 3-4
- activity on B, 0-4 scale (artemisia vulgaris L.; 6 kg/ha): 4
- activity on N, 0-4 scale ([4]; in vivo): 4
- activity on A, 0-4 scale ([6]; 2 kg/ha): 2-3
- activity on A, 0-4 scale ([6]; 4 kg/ha): 3
- activity on A, 0-4 scale ([6]; 6 kg/ha): 3-4
- phytotoxic action on useful plants (useful plants): phytotoxic action of considerable intensity
- activity on P, 0-4 scale (oryza sativa L. (rice); in vivo): 4
- activity on C, 0-4 scale (chenopodium album L.; 2 kg/ha): 2-3
- activity on C, 0-4 scale (chenopodium album L.; 4 kg/ha): 3
- activity on C, 0-4 scale (chenopodium album L.; 6 kg/ha): 3
- activity on F, 0-4 scale (vicia sativa L.; 2 kg/ha): 2-3
- activity on F, 0-4 scale (vicia sativa L.; 4 kg/ha): 3
- activity on F, 0-4 scale (vicia sativa L.; 6 kg/ha): 3-4
- herbicidal action (infesting gramineae): very active

SMILES: CC(C)N(C(=O)c1cc(Cl)cc(Cl)c1Cl)C(C)C [PA302, 2,3,5-trichloro-N,N-di-iso-propyl-benzamide, reference compound]
- activity on E, 0-4 scale (setaria glauca L.; 1 kg/ha): 3-4
- activity on E, 0-4 scale (setaria glauca L.; 3 kg/ha): 4
- activity on E, 0-4 scale (setaria glauca L.; 6 kg/ha): 4
- activity on D, 0-4 scale ([2]; 3 kg/ha): 4
- activity on D, 0-4 scale ([2]; 6 kg/ha): 4
- activity on B, 0-4 scale (artemisia vulgaris L.; 1 kg/ha): 1-2
- activity on B, 0-4 scale (artemisia vulgaris L.; 3 kg/ha): 2
- activity on B, 0-4 scale (artemisia vulgaris L.; 6 kg/ha): 2
- activity on A, 0-4 scale ([6]; 3 kg/ha): 2
- activity on A, 0-4 scale ([6]; 6 kg/ha): 2-3
- phytotoxic action on useful plants (useful plants): phytotoxic action of considerable intensity
- activity on P, 0-4 scale (oryza sativa L. (rice); in vivo): 4-3
- activity on C, 0-4 scale (chenopodium album L.; 1 kg/ha): 2
- activity on C, 0-4 scale (chenopodium album L.; 3 kg/ha): 3
- activity on C, 0-4 scale (chenopodium album L.; 6 kg/ha): 3
- activity on F, 0-4 scale (vicia sativa L.; 1 kg/ha): 0
- activity on F, 0-4 scale (vicia sativa L.; 3 kg/ha): 0-1
- activity on F, 0-4 scale (vicia sativa L.; 6 kg/ha): 0-1
- herbicidal action (infesting gramineae): very active

SMILES: CCC(C)N(C(=O)c1ccc(Cl)c(Br)c1)C(C)CC (stereo not shown) [PA489, 3-bromo,4-chloro-N,N-di-sec.butyl-benzamide]
- activity on G, 0-4 scale (avena sativa (oats) [1]; 3 kg/ha): 0
- activity on G, 0-4 scale (avena sativa (oats) [1]; 6 kg/ha): 0
- activity on E, 0-4 scale (setaria glauca L.; 2 kg/ha): 3
- activity on E, 0-4 scale (setaria glauca L.; 4 kg/ha): 4-3
- activity on E, 0-4 scale (setaria glauca L.; 6 kg/ha): 4
- activity on D, 0-4 scale ([2]; 2 kg/ha): 3-2
- activity on D, 0-4 scale ([2]; 4 kg/ha): 3-4
- activity on D, 0-4 scale ([2]; 6 kg/ha): 3-4
- activity on I, 0-4 scale ([3]; 3 kg/ha): 0
- activity on I, 0-4 scale ([3]; 6 kg/ha): 0
- activity on O, 0-4 scale (zea mais L. (corn); 3 kg/ha): 0
- activity on O, 0-4 scale (zea mais L. (corn); 6 kg/ha): 0
- activity on M, 0-4 scale (solanum Lycopersicum L.; 6 kg/ha): 1
- activity on B, 0-4 scale (artemisia vulgaris L.; 2 kg/ha): 0-1
- activity on B, 0-4 scale (artemisia vulgaris L.; 4 kg/ha): 1
- activity on B, 0-4 scale (artemisia vulgaris L.; 6 kg/ha): 3
- activity on N, 0-4 scale ([4]; 3 kg/ha): 0
- activity on N, 0-4 scale ([4]; 6 kg/ha): 0
- activity on A, 0-4 scale ([6]; 2 kg/ha): 1
- activity on A, 0-4 scale ([6]; 4 kg/ha): 1-2
- activity on A, 0-4 scale ([6]; 6 kg/ha): 3
- activity on P, 0-4 scale (oryza sativa L. (rice); 3 kg/ha): 0
- activity on P, 0-4 scale (oryza sativa L. (rice); 6 kg/ha): 0
- activity on H, 0-4 scale ([7]; 6 kg/ha): 1
- activity on C, 0-4 scale (chenopodium album L.; 2 kg/ha): 1
- activity on C, 0-4 scale (chenopodium album L.; 4 kg/ha): 1-2
- activity on C, 0-4 scale (chenopodium album L.; 6 kg/ha): 2
- activity on L, 0-4 scale (pisum sativum L. (pea); 3 kg/ha): 0
- activity on L, 0-4 scale (pisum sativum L. (pea); 6 kg/ha): 0
- activity on F, 0-4 scale (vicia sativa L.; 2 kg/ha): 0
- activity on F, 0-4 scale (vicia sativa L.; 4 kg/ha): 0
- activity on F, 0-4 scale (vicia sativa L.; 6 kg/ha): 0-1
